Our source for the MIC values is US20150038438A1, “ANTIBACTERIAL COMPOUNDS AND METHODS FOR USE” (PTC THERAPEUTICS, INC., priority 2011, published 2015).

≈ marks a conversion by molar mass, not a printed value.

What all share (assay): Antibacterial activity, microbroth dilution method (MIC)
Assay [1] concerns super sensitive Gram-negative Escherichia coli (E. coli) BAS849. The format is cell-based. As to conditions: Escherichia coli; super sensitive Gram-negative E. coli BAS849; microbroth dilution; read-out: MIC, E. coli BAS849. In a few lines: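 MIC (μg/mL) is taken as the lowest concentration with no macroscopically visible growth. Strains tested by microbroth dilution: Gram-positive S. aureus 29213, control Gram-negative E. coli 25922, and super-sensitive E. coli BAS849.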
For orientation: Dilution methods test growth across graded concentrations, often in twofold steps.

Assay [2] relates to Gram-positive Staphylococcus aureus (S. aureus) 29213. The format is cell-based. As to conditions: Staphylococcus aureus, Gram-positive S. aureus 29213. In a few lines:
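Values are MICs (μg/mL): the smallest drug amount at which macroscopically visible bacterial growth is absent under assay conditions, from a microdilution method in broth.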

Assay [3] deals with control Gram-negative E. coli 25922 strain. The format is cell-based, Escherichia coli. As to conditions: Escherichia coli. The gist of the method:
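Growth inhibition by microbroth dilution. MIC = lowest μg/mL with no visible growth. Strain 25922 is the control Gram-negative; BAS849 is hypersensitive.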

By MIC is commonly meant the smallest concentration in the dilution series that meets the test's criterion for growth inhibition. `CNC1CCN(c2ccc3c(c2)CCCc2c-3[nH]c(=O)c(C(=O)O)c2O)C1.Cl` (stereo not drawn) [Cpd 8, 4-hydroxy-9-(3-(methylamino)pyrrolidin-1-yl)-2-oxo-2,5,6,7-tetrahydro-1H-benzo[6,7]cyclohepta[1,2-b]pyridine-3-carboxylic acid hydrochloride]: the MIC in assay [1] lay in the range of 1 to 3.5 µg/mL; in assay [2] it was 12.5 to 150 µg/mL; in assay [3], 3.5 to 12.5 µg/mL.

Consider `Cl.Cl.Cn1c(CN2CCC(N)CC2)cc2cc3c(cc21)CCCc1c-3[nH]c(=O)c(C(=O)O)c1O` [Cpd 29, 10-((4-aminopiperidin-1-yl)methyl)-4-hydroxy-9-methyl-2-oxo-1,2,5,6,7,9-hexahydropyrido[3′,2′:6,7]cyclohepta[1,2-f]indole-3-carboxylic acid dihydrochloride], for which the MIC is less than 1 µg/mL in assay [1], 12.5 to 150 µg/mL in assay [2] and 1 to 3.5 µg/mL in assay [3].

Regarding `Cl.Cn1c(CN2CCOCC2)cc2cc3c(cc21)CCCc1c-3[nH]c(=O)c(C(=O)O)c1O` [Cpd 41, 4-hydroxy-9-methyl-10-(morpholinomethyl)-2-oxo-1,2,5,6,7,9-hexahydropyrido[3′,2′:6,7]cyclohepta[1,2-f]indole-3-carboxylic acid hydrochloride], the MIC was less than 1 µg/mL in assay [1], 1 to 3.5 µg/mL in assay [2] and 3.5 to 12.5 µg/mL in assay [3].

For `CCCCCCCCCNCc1cc2cc3c(cc2n1C)CCCc1c-3[nH]c(=O)c(C(=O)O)c1O.Cl` [Cpd 141, 4-hydroxy-9-methyl-10-((nonylamino)methyl)-2-oxo-1,2,5,6,7,9-hexahydropyrido[3′,2′:6,7]cyclohepta[1,2-f]indole-3-carboxylic acid hydrochloride], the MIC in assay [1] is 1 to 3.5 µg/mL; in assay [2], 3.5 to 12.5 µg/mL; in assay [3], 12.5 to 150 µg/mL.

For `CCCCNCc1cc2cc3c(cc2n1C)CCCc1c-3[nH]c(=O)c(C(=O)O)c1O.Cl` [Cpd 136, 10-((butylamino)methyl)-4-hydroxy-9-methyl-2-oxo-1,2,5,6,7,9-hexahydropyrido[3′,2′:6,7]cyclohepta[1,2-f]indole-3-carboxylic acid hydrochloride], the MIC is less than 1 µg/mL in assay [1], 3.5 to 12.5 µg/mL in assay [2] and less than 1 µg/mL in assay [3].

Regarding `CN(C)C1CCN(Cc2cc3cc4c(cc3n2C)CCCc2c-4[nH]c(=O)c(C(=O)O)c2O)CC1.Cl.Cl` [Cpd 30, 10-((4-(dimethylamino)piperidin-1-yl)methyl)-4-hydroxy-9-methyl-2-oxo-1,2,5,6,7,9-hexahydropyrido[3′,2′:6,7]cyclohepta[1,2-f]indole-3-carboxylic acid dihydrochloride], the MIC is less than 1 µg/mL in assay [1], 3.5 to 12.5 µg/mL in assay [2] and 3.5 to 12.5 µg/mL in assay [3].

Consider `CCNCc1cc2cc3c(cc2n1C)C=CCc1c-3[nH]c(=O)c(C(=O)O)c1O.Cl` [Cpd 69, 10-((ethylamino)methyl)-4-hydroxy-9-methyl-2-oxo-1,2,5,9-tetrahydropyrido[3′,2′:6,7]cyclohepta[1,2-f]indole-3-carboxylic acid hydrochloride], for which the MIC in assay [1] was less than 1 µg/mL; in assay [2], 12.5 to 150 µg/mL; in assay [3], less than 1 µg/mL.

Regarding `CN1CCc2cc3c(cc21)CCCc1c(O)c(C(=O)O)c(=O)n(C)c1-3` [Cpd 135, 4-hydroxy-1,9-dimethyl-2-oxo-1,2,5,6,7,9,10,11-octahydropyrido[3′,2′:6,7]cyclohepta[1,2-f]indole-3-carboxylic acid], the MIC in assay [1] was less than 1 µg/mL; in assay [2] it was 3.5 to 12.5 µg/mL (≈ 10.3 to 36.7 µM); in assay [3], 12.5 to 150 µg/mL (≈ 36.7 to 441 µM).

Turning to `COCCNCc1cc2cc3c(cc2n1C)OCCc1c-3[nH]c(=O)c(C(=O)O)c1O.Cl` [Cpd 183, 4-hydroxy-10-(((2-methoxyethyl)amino)methyl)-9-methyl-2-oxo-2,5,6,9-tetrahydro-1H-pyrido[2′,3′:4,5]oxepino[3,2-f]indole-3-carboxylic acid hydrochloride], the results for the MIC in assay [1], in assay [2] and in assay [3] were less than 1 µg/mL, 12.5 to 150 µg/mL and 1 to 3.5 µg/mL, respectively.

Consider `Cl.Cl.Cn1c(CN2CC[C@H](N)C2)cc2cc3c(cc21)CCCc1c-3[nH]c(=O)c(C(=O)O)c1O` [Cpd 49, (S)-10-((3-aminopyrrolidin-1-yl)methyl)-4-hydroxy-9-methyl-2-oxo-1,2,5,6,7,9-hexahydropyrido[3′,2′:6,7]cyclohepta[1,2-f]indole-3-carboxylic acid dihydrochloride], for which the figures for the MIC in assay [1], in assay [2] and in assay [3] were 1 to 3.5 µg/mL, 12.5 to 150 µg/mL and 3.5 to 12.5 µg/mL, respectively.

Turning to `CC1CCc2c([nH]c(=O)c(C(=O)O)c2O)-c2cc3cc(CNC(C)(C)C)n(C)c3cc21.Cl` (stereo not drawn) [Cpd 65, 10-((tert-butylamino)methyl)-4-hydroxy-7,9-dimethyl-2-oxo-1,2,5,6,7,9-hexahydropyrido[3′,2′:6,7]cyclohepta[1,2-f]indole-3-carboxylic acid hydrochloride], the MIC was in the range of 1 to 3.5 µg/mL in assay [1], 3.5 to 12.5 µg/mL in assay [2] and 3.5 to 12.5 µg/mL in assay [3].

Take `Cl.O=C(O)c1c(O)c2c([nH]c1=O)-c1ccc(N3C[C@H]4CCCN[C@H]4C3)cc1CCC2` [Cpd 114, 9-((4aR,7aR)-hexahydro-1H-pyrrolo[3,4-b]pyridin-6(2H)-yl)-4-hydroxy-2-oxo-2,5,6,7-tetrahydro-1H-benzo[6,7]cyclohepta[1,2-b]pyridine-3-carboxylic acid hydrochloride]: the values for the MIC in assay [1], in assay [2] and in assay [3] were 1 to 3.5 µg/mL, 12.5 to 150 µg/mL and 3.5 to 12.5 µg/mL, respectively.

Take `CNCCNCc1cc2cc3c(cc2n1C)OCCc1c-3[nH]c(=O)c(C(=O)O)c1O.Cl.Cl` [Cpd 181, 4-hydroxy-9-methyl-10-(((2-(methylamino)ethyl)amino)methyl)-2-oxo-2,5,6,9-tetrahydro-1H-pyrido[2′,3′:4,5]oxepino[3,2-f]indole-3-carboxylic acid dihydrochloride]: the MIC in assay [1], in assay [2] and in assay [3] was 12.5 to 150 µg/mL throughout.

For the compound `CC1Cc2cc3c(cc2-c2[nH]c(=O)c(C(=O)O)c(O)c21)OCO3` (stereo not drawn) [Cpd 106, 4-hydroxy-5-methyl-2-oxo-1,2,5,6-tetrahydro-[1,3]dioxolo[4′,5′:4,5]benzo[1,2-h]quinoline-3-carboxylic acid], the MIC is 1 to 3.5 µg/mL (≈ 3.17 to 11.1 µM) in assay [1], 12.5 to 150 µg/mL (≈ 39.6 to 476 µM) in assay [2] and 12.5 to 150 µg/mL (≈ 39.6 to 476 µM) in assay [3].

Regarding `Cl.Cn1c(CNCC(C)(C)C)cc2cc3c(cc21)CCCc1c-3[nH]c(=O)c(C(=O)O)c1O` [Cpd 155, 4-hydroxy-9-methyl-10-((neopentylamino)methyl)-2-oxo-1,2,5,6,7,9-hexahydropyrido[3′,2′:6,7]cyclohepta[1,2-f]indole-3-carboxylic acid hydrochloride], the MIC in assay [1] was less than 1 µg/mL; in assay [2] it was 3.5 to 12.5 µg/mL; in assay [3], 1 to 3.5 µg/mL.

With `CNCc1cc2cc3c(cc2n1C)OCCc1c-3[nH]c(=O)c(C(=O)O)c1O.Cl` [Cpd 88, 4-hydroxy-9-methyl-10-((methylamino)methyl)-2-oxo-2,5,6,9-tetrahydro-1H-pyrido[2′,3′:4,5]oxepino[3,2-f]indole-3-carboxylic acid hydrochloride], the MIC in assay [1] is less than 1 µg/mL; in assay [2], 12.5 to 150 µg/mL; in assay [3], 1 to 3.5 µg/mL.

In the case of `CCCNc1ccc2c(c1)CCCCc1c-2[nH]c(=O)c(C(=O)O)c1O` [Cpd 128, 4-hydroxy-2-oxo-10-(propylamino)-1,2,5,6,7,8-hexahydrobenzo[7,8]cycloocta[1,2-b]pyridine-3-carboxylic acid], the MIC in assay [1] lay in the range of 1 to 3.5 µg/mL (≈ 2.92 to 10.2 µM); in assay [2], 3.5 to 12.5 µg/mL (≈ 10.2 to 36.5 µM); in assay [3], 12.5 to 150 µg/mL (≈ 36.5 to 438 µM).
